Reference: patent US20190183910A1, “ENHANCING DNA REPAIR AND PREVENTING AGING AND ITS CONSEQUENCES IN REPRODUCTIVE AND OTHER CELLS” (NEW YORK MEDICAL COLLEGE, priority 2016, published 2019)

Tests used:
[1] = clinical use, FDA-approved for multiple sclerosis; cited from earlier work
[2] = post-transplantation clinical trials; cited from earlier work
mouse sperm [3] = assay: Alkaline comet assay on mouse sperm; format: cell-based; details: mouse sperm, H2O2 alone (1 mM), without ATM inhibitor, n=9, mean±SEM
Protocol: (§1) Treatment was performed with genotoxic stress (1 mM H2O2), S1P (200 μM), and S1P with genotoxic stress and control in culture for one hour. Also, the use of an ATM inhibitor was utilized (10 μM) (KU-55593, Abcam) (Li et al., 2014). We assessed DNA damage, apoptosis, and chromatin integrity. We also studied the DNA DSB repair gene expression by qRT-PCR in sperm lysates.
Slides were prepared 48 hours prior to experimentation by coating normal glass microscope slides with 500 μl normal melting point agar (0.5% w/v in PBS) solution and left to dry at room temperature for no less than 48 hours. Then, 10 μl of mouse sperm suspension was mixed with 90 μl of 0.5% LMPA. Then this 100 μl solution was added to the NMPA-coated slides. Coverslips were added and slides were placed on a metallic tray on ice and in the dark for 5 minutes. The cover slips were removed and a 90 μl layer of LMPA was added. Cover slips were subsequently replaced before the LMPA hardened. Slides were then kept in the dark on ice again for another 5 minutes. After ten minutes, the cover slips were removed and slides were placed in staining jars containing ice cold lysing solution (2.5 M NaCl, 200 mM NaOH, 100 mM EDTA, 10 mM Trizma Base, 1% Triton X-100 and 10% DMSO [pH 10]) for 1.5 hours at 4° C. in a dark place.
After this lysis step, the slides were washed three times for 5 minutes with TE buffer (pH 8.0), and then placed flatly in the electrophoresis tank face up for 30 minutes to achieve the unwinding of the DNA. The alkaline electrophoresis buffer in this tank included 300 mM NaOH and 1 mM EDTA [pH13]. This incubation period was used to achieve the alkaline unwinding of the DNA. Electrophoresis was then performed at 25 V, 300 mA for 30 minutes. After this, slides were washed twice in neutralization buffer (0.4 M Tris, pH 7.5) for 5 minutes each. Before analysis could occur, the sperm within the slides needed to be fixed by draining the slides well on paper towels and then subjecting them to two 10 minute washes in ethanol, and then air drying at room temperature for 5 minutes. Ethidium bromide (50 μl at 10 μg/ml in water) was then added on the slide, and sealed with a cover slip. Slides were kept moist, wrapped in aluminum foil to prevent light exposure, and stored at 4° C. until analysis (Williams et al., 2014).
Slides from both alkaline and neutral comets were imaged by fluorescence microscopy using a Nikon OPTIPHOT microscope. ImageJ was used for comet assay analysis, which calculated tail length, tail moment, and % of DNA in the tail. […] To analyze the slides, an oval around the sperm head was drawn and calculated and then an oval around the sperm tail was drawn and calculated. […] It was calculated as the Pythagorean distance between two points. […]

mouse sperm [4] = assay: Neutral comet assay on mouse sperm; format: cell-based; details: mouse sperm, H2O2 alone (1 mM), without ATM inhibitor, n=9, mean±SEM
Protocol: as §1
Slides were prepared 48 hours prior to experimentation by coating normal glass microscope slides with 500 μl normal melting point agar (NMPA, 0.5% w/v in PBS) solution and left to dry at room temperature for no less than 48 hours. Once samples were obtained, 10 μl of mouse sperm suspension was mixed with 90 μl of 0.5% low melting point agar (LMPA). Then, this 100 μl solution was added to the NMPA-coated slides. Coverslips were added and slides were placed on a metallic tray on ice and in the dark for 5 minutes. The cover slips were then removed and another layer of LMPA was added. Cover slips were subsequently replaced before the LMPA hardened. Slides were then kept in the dark on ice again for another 5 minutes. After ten minutes, the cover slips were removed and slides were placed in staining jars containing ice cold lysing solution (2.5 M NaCl, 100 mM EDTA, sodium N-laurylsacrosinate [SLS]. [1% w/v] and 10 mM Trizma base pH10, and 1% Triton-X-100 and 10% DMSO [immediately adding before use]) for 1 hour at 4° C. in a dark place.
After this lysis step, the slides were washed three times for 5 minutes with the cold electrophoresis buffer (0.089 M Tris base, 0.089 M boric acid and 2 mM EDTA [pH 8.3]), and then placed flatly in the electrophoresis tank face up for 30 minutes. This incubation period was used to achieve the unwinding of the DNA. Electrophoresis was then performed at 18 V for 60 minutes. After this, slides were washed twice in PBS for 5 minutes each. Before analysis could occur, the sperm within the slides needed to be fixed by two 10 minute washes in ethanol, and then air drying at room temperature. Ethidium bromide (50 μl at 10 μg/ml in water) was then added on the slide, and sealed with a cover slip. Slides were kept moist, wrapped in aluminum foil to prevent light exposure, and stored at 4° C. until analysis (Smart et al., 2008).
Slides from both alkaline and neutral comets were imaged by fluorescence microscopy using a Nikon OPTIPHOT microscope. ImageJ was used for comet assay analysis, which calculated tail length, tail moment, and % of DNA in the tail. […] The comets were “on scale” for the calculations to be correct (the brightest pixels of interest were below 255 on an 8-bit scale). […] To analyze the slides, an oval around the sperm head was drawn and calculated and then an oval around the sperm tail was drawn and calculated. […] It was calculated as the Pythagorean distance between two points. […]

human sperm = assay: Alkaline comet assay on human sperm; format: cell-based; details: H2O2 alone, without ATM inhibitor, n=3, mean±SEM

Row | SMILES | safety profile [1] | benefit as antirejection medication [2] | percent tail DNA, alkaline comet (mouse sperm [3]) | percent tail DNA, neutral comet (mouse sperm [4]) | percent tail DNA, alkaline comet (human sperm)
1 | CCCCCCCCc1ccc(CCC(N)(CO)CO)cc1 [FTY720] | acceptable safety profile | failed to show any significant benefit |  |  | 
2 | OO [H2O2, reference compound] |  |  | 27.3±0.90% | 29.6±0.64% | 24.0±1.70%
